Earlier results, collected in patent publication US20010034320A1, “NK1-receptor antagonists for treating restless legs syndrome” (priority 2000, published 2001).

System: Restless Legs Syndrome (RLS)
Conditions: for effect on RLS complaint in therapy trials: RLS patients, therapy trials described in the background
[1] = objective polysomnographic measuring parameters, daily doses 0.1-0.9 mg

Row | Structure (SMILES) | quality of sleep, frequency of waking or periodic leg movements in sleep (PLMS) [1] | sleep latency [1] | perceived symptoms such as paraesthesia, compulsive movement and tiredness during the day (patient-reported, daily doses 0.1-0.9 mg, 4 open trials, 2 double-blind placebo-controlled trials and a single case study) | effect on RLS complaint in therapy trials
1 | Clc1cccc(Cl)c1NC1=NCCN1 [clonidine, 2-(2,6-dichloroanilino)-4,5-dihydroimidazole] | not affected | shortened | (statistically significant) reduction | –
2 | N[C@@H](Cc1ccc(O)c(O)c1)C(=O)O [L-dopa, levodopa] | – | – | – | significant alleviation of the complaint
3 | NC(=O)N1c2ccccc2C=Cc2ccccc21 [Carbamazepine] | – | – | – | only partial relief from the complaint
